Measured values from paper PMC8684500, “Substrate specificity of Chondroitinase ABC I based on analyses of biochemical reactions and crystal structures in complex with disaccharides” (Glycobiology, 2021).

Columns and labels:
Test in all cases: X-ray crystal structure, soaking, […] Å
Assay type in all cases: binding
[1] = target: T1, Chondroitinase ABC I (cABC-I) (Proteus vulgaris, UniProt P59807); details: soaked at 100 mM; pH 7.5; two molecules in active site cleft
T1 construct: native purification from P. vulgaris cells (CSC as inducer); mature monomer, 997 residues; domains 25-234, 235-617, 618-1021
T1 sequence (P59807 25-1021): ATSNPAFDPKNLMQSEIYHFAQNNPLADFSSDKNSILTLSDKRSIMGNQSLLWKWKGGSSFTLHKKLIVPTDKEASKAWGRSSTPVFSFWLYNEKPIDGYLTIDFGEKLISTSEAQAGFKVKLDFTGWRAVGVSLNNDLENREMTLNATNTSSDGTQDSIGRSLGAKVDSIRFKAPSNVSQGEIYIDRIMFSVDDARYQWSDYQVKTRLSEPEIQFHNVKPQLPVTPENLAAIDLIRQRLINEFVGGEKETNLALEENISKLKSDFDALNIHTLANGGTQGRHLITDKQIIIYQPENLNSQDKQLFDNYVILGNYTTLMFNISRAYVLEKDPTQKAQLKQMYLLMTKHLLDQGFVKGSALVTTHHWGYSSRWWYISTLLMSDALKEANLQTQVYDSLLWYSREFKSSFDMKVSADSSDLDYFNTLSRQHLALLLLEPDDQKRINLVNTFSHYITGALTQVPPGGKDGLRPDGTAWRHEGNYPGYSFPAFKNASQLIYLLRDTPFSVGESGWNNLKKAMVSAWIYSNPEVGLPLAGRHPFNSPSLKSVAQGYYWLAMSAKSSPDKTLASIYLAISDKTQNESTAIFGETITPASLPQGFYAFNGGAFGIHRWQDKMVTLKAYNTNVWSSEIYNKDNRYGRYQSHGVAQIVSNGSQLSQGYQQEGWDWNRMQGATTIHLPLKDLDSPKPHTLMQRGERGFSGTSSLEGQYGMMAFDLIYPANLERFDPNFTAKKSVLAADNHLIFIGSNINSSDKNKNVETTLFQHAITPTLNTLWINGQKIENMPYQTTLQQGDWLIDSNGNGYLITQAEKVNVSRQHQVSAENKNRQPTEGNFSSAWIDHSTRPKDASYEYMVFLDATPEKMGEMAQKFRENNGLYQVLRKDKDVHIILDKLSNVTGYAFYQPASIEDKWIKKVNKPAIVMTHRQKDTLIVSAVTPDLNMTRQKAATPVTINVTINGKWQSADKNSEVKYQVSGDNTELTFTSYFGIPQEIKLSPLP

[2] = target: T1, Chondroitinase ABC I (cABC-I); details: soaked at 100 mM; pH 7.5; three molecules in active site cleft
[3] = target: T1, Chondroitinase ABC I (cABC-I); details: soaked at 100 mM; pH 7.5; two molecules in active site cleft; remark: listed apart in the source

Question: `CC(=O)N[C@H]1C(O)O[C@H](COS(=O)(=O)O)[C@H](O)[C@@H]1O[C@@H]1OC(C(=O)O)=C[C@H](O)[C@H]1O` (stereo partly drawn) [ΔDi-6S] was tested. Which “X-ray crystal structure, soaking, 1.92 Å” value [1] did it give?
Answer: 7EIR, cABC-I in complex with ΔDi-6S

Question: For `CC(=O)N[C@H]1C(O)O[C@H](CO)[C@H](OS(=O)(=O)O)[C@@H]1O[C@@H]1OC(C(=O)O)=C[C@H](O)[C@H]1O` (stereo partly drawn) [ΔDi-4S], which “X-ray crystal structure, soaking, 1.80 Å” value [2] is on record?
Answer: 7EIQ, cABC-I in complex with ΔDi-4S

Question: `CC(=O)N[C@H]1C(O)O[C@H](CO)[C@H](O)[C@@H]1O[C@@H]1OC(C(=O)O)=C[C@H](O)[C@H]1O` (stereo partly drawn) [ΔDi-0S] was tested. Which “X-ray crystal structure, soaking, 2.50 Å” value [3] did it give?
Answer: 7EIS, cABC-I in complex with ΔDi-0S
